Measurements taken from BigSolDB 2.1.

C#C[C@]1(O)CC[C@H]2[C@@H]3CCC4=CC(=O)CC[C@@H]4[C@H]3C(=C)C[C@@]21CC
solubility (mole fraction)
Conditions	278.15 K	283.15 K	288.15 K	293.15 K	298.15 K	303.15 K	308.15 K	313.15 K	318.15 K	323.15 K
in DMF	0.0797	0.084	0.0882	0.093	0.0975	0.102	0.107	0.112	0.117	0.121
in isopropanol	0.00597	0.00697	0.00803	0.00923	0.0106	0.0121	0.0137	0.0156	0.0174	0.0195
in n-propanol	0.00504	0.00579	0.00677	0.00783	0.00901	0.0103	0.0117	0.0132	0.015	0.0168
in water	1.48e-05	1.8e-05	2.15e-05	2.56e-05	3.11e-05	3.69e-05	4.3e-05	5.03e-05	5.85e-05	6.78e-05
